What was measured:
Type in all cases: functional
Bacillus subtilis = assay: Antibacterial activity against Bacillus subtilis at […] after 24 hr by agar well diffusion assay
Escherichia coli = assay: Antibacterial activity against Escherichia coli at […] after 24 hr by agar well diffusion assay
Aspergillus niger = assay: Antifungal activity against Aspergillus niger at […] after 24 hr by agar well diffusion assay
Streptococcus pyogenes = assay: Antibacterial activity against Streptococcus pyogenes at […] after 24 hr by agar well diffusion assay

Row | SMILES | inhibition zone (IZ) (Bacillus subtilis) [mm] | inhibition zone (IZ) (Escherichia coli) [mm] | inhibition zone (IZ) (Aspergillus niger) [mm] | inhibition zone (IZ) (Streptococcus pyogenes) [mm]
1 | CCOc1ccc(NC(=S)Sc2nc(Nc3cccc(C)c3)nc(Nc3cccc(C)c3)n2)cc1 | 13 | 14 | 18 | 13
2 | Cc1cccc(Nc2nc(Nc3cccc(C)c3)nc(SC(=S)Nc3ccccc3C)n2)c1 | 12 | 12 | 23 | 11
3 | Cc1cccc(NC(=S)Sc2nc(Nc3cccc(C)c3)nc(Nc3cccc(C)c3)n2)c1 | 14 | 15 | 20 | 12
4 | Cc1ccc(NC(=S)Sc2nc(Nc3cccc(C)c3)nc(Nc3cccc(C)c3)n2)cc1 | 15 | 19 | 14 | 15
5 | COc1ccccc1NC(=S)Sc1nc(Nc2cccc(C)c2)nc(Nc2cccc(C)c2)n1 | 14 | 13 | 18 | 14
6 | COc1ccc(NC(=S)Sc2nc(Nc3cccc(C)c3)nc(Nc3cccc(C)c3)n2)cc1 | 12 | 12 | 17 | 15
7 | Cc1cccc(Nc2nc(Nc3cccc(C)c3)nc(SC(=S)Nc3ccccc3[N+](=O)[O-])n2)c1 | 15 | 15 | 16 | 14
8 | Cc1cccc(Nc2nc(Nc3cccc(C)c3)nc(SC(=S)Nc3ccc([N+](=O)[O-])cc3)n2)c1 | 13 | 13 | 17 | 15
9 | Cc1cccc(Nc2nc(Nc3cccc(C)c3)nc(SC(=S)NN3CCOCC3)n2)c1 | 12 | 12 | 15 | 13
10 | CC(=O)N(C(C)=O)C(=S)Sc1nc(Nc2cccc(C)c2)nc(Nc2cccc(C)c2)n1 | 12 | 11 | 14 | 11
11 | Cc1cccc(Nc2nc(SC(=S)Nc3ccccc3)nc(SC(=S)Nc3ccccc3)n2)c1 | 15 | 12 | 12 | 12
12 | Cc1cccc(Nc2nc(SC(=S)Nc3ccc(Cl)cc3)nc(SC(=S)Nc3ccc(Cl)cc3)n2)c1 | 18 | 15 | 17 | 18
13 | CCOc1ccc(NC(=S)Sc2nc(Nc3cccc(C)c3)nc(SC(=S)Nc3ccc(OCC)cc3)n2)cc1 | 14 | 16 | 12 | 15
14 | Cc1cccc(Nc2nc(SC(=S)Nc3ccccc3C)nc(SC(=S)Nc3ccccc3C)n2)c1 | 19 | 12 | 13 | 12
15 | Cc1cccc(NC(=S)Sc2nc(Nc3cccc(C)c3)nc(SC(=S)Nc3cccc(C)c3)n2)c1 | 13 | 13 | 14 | 12
16 | Cc1ccc(NC(=S)Sc2nc(Nc3cccc(C)c3)nc(SC(=S)Nc3ccc(C)cc3)n2)cc1 | 19 | 13 | 20 | 13
17 | COc1ccccc1NC(=S)Sc1nc(Nc2cccc(C)c2)nc(SC(=S)Nc2ccccc2OC)n1 | 15 | 15 | 14 | 11
18 | COc1ccc(NC(=S)Sc2nc(Nc3cccc(C)c3)nc(SC(=S)Nc3ccc(OC)cc3)n2)cc1 | 15 | 15 | 15 | 14
19 | Cc1cccc(Nc2nc(SC(=S)Nc3ccccc3[N+](=O)[O-])nc(SC(=S)Nc3ccccc3[N+](=O)[O-])n2)c1 | 14 | 17 | 19 | 13
20 | Cc1cccc(Nc2nc(SC(=S)Nc3ccc([N+](=O)[O-])cc3)nc(SC(=S)Nc3ccc([N+](=O)[O-])cc3)n2)c1 | 16 | 15 | 16 | 17
21 | Cc1cccc(Nc2nc(SC(=S)NN3CCOCC3)nc(SC(=S)NN3CCOCC3)n2)c1 | 13 | 12 | 13 | 14
22 | CCN(CC)C(=S)Sc1nc(Nc2cccc(C)c2)nc(SC(=S)N(CC)CC)n1 | 12 | 12 | 13 | 12
23 | Cc1cccc(Nc2nc(Nc3cccc(C)c3)nc(SC(=S)Nc3ccccc3)n2)c1 | 12 | 13 | 17 | 15
24 | Cc1cccc(Nc2nc(Nc3cccc(C)c3)nc(SC(=S)Nc3ccc(Cl)cc3)n2)c1 | 12 | 15 | 16 | 13
25 | CC1(C)S[C@@H]2[C@H](NC(=O)[C@H](N)c3ccccc3)C(=O)N2[C@H]1C(=O)O [AMPICILLIN] | 22 | 24 |  | 26
26 | O=C(N[C@H](CO)[C@H](O)c1ccc([N+](=O)[O-])cc1)C(Cl)Cl [CHLORAMPHENICOL] | 28 | 19 |  | 22
27 | COC1=CC(=O)C[C@@H](C)[C@]12Oc1c(Cl)c(OC)cc(OC)c1C2=O [GRISEOFULVIN] |  |  | 20 | 
28 | CCn1cc(C(=O)O)c(=O)c2cc(F)c(N3CCNCC3)cc21 [NORFLOXACIN] | 19 | 25 |  | 26
